The record followed here is patent US20250280861A1, “SWEETENER COMPOSITIONS” (Firmenich Incorporated, priority 2022, published 2025).

Like-named read-outs stand apart in the source and are kept apart here. A value given as a limit tells only on which side of the number the result lay.

For test [1], the system named is panelists. The experiment in a line: sweet enhancement taste tests (paired comparison, panelists choose the sweeter sample). Format: in vivo, human. To be noted: for HFCS and sucrose sweet enhancement effect: taste tests, pH 2.8, concentration far below its sweetness threshold. The method, then: Test samples containing either a sweetener (sucrose or high-fructose corn syrup (HFCS)) alone or in combination with a test compound were presented in pairs to a group of panelists who were asked to determine which of the samples was sweeter. Subjects refrained from eating or drinking (except water) for at least 1 hour prior to the test. Subjects rinsed with water several times to clean the mouth. The samples within a paired comparison test were presented in a randomized, counterbalanced order. Panelists had up to a 1 minute delay between taste tests to clear the mouth of any tastes. Binomial probability tables were used to determine the probability of the correct number of responses occurring for each test at alpha-0.05.

For test [2], the target named is T1, hT1R2/T1R3 taste receptor (Homo sapiens, UniProt Q7RTX0+Q8TE23).
T1 sequence (Q8TE23 20-839): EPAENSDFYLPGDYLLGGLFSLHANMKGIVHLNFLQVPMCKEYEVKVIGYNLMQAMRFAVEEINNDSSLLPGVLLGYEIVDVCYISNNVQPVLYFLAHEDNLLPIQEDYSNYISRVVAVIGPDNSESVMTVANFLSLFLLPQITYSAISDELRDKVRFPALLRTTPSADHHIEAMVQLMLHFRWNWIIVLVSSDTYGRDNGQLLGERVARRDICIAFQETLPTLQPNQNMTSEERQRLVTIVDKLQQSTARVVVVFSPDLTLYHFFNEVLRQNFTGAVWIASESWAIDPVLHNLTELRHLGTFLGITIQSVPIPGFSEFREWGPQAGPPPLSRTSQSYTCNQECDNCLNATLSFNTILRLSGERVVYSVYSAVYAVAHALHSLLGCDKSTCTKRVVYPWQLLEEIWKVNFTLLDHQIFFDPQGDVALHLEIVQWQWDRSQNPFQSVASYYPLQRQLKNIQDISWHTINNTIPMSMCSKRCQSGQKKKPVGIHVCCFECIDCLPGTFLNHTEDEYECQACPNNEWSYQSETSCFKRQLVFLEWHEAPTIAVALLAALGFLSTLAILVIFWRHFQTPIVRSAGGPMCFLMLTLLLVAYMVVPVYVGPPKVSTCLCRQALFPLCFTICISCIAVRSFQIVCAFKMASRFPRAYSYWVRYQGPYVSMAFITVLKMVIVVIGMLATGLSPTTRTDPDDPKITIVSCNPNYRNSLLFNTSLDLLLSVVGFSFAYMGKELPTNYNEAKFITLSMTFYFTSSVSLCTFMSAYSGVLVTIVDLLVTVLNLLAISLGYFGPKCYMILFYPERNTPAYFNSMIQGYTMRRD
T1 sequence (Q7RTX0 21-852): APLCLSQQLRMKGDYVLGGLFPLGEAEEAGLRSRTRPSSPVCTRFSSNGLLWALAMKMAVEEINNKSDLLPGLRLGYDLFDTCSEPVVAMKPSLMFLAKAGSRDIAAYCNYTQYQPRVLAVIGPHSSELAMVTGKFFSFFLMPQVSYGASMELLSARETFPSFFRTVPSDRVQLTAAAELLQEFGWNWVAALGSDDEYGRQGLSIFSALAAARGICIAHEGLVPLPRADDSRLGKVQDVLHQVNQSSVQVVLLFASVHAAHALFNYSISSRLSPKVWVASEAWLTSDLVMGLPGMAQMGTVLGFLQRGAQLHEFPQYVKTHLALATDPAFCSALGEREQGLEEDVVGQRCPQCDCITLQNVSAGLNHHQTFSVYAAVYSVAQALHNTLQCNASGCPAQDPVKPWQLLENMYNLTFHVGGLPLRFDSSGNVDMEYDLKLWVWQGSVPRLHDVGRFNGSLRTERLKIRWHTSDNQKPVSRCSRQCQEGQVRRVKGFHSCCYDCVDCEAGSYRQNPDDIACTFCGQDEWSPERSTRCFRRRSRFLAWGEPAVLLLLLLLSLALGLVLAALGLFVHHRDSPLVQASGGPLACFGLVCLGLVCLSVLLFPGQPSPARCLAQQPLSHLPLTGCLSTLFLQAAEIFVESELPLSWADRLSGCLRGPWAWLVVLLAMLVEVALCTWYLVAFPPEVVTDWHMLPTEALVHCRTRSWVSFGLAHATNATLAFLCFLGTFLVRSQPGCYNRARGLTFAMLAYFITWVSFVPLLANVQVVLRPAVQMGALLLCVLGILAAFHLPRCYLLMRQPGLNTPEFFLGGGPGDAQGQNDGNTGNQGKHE
The experiment in a line: agonist activity against the hT1R2/T1R3 taste receptor (sweet receptor based assay). Format: cell-based. As for the experimental part:
Compounds described in this application show moderate to potent agonist effect on the sweet receptor based assay. Potencies (EC50 values, e.g. see Tables 1-3) for agonist activity were measured against the hT1R2/T1R3 taste receptor. FIG. 1 exemplifies the data generated during the screening to determine EC50 values.

Where [3] appears, read: Study 1: 10 ppm Compound 78 vs 1.5% Sucrose, pH 2.8.
Setting [4] is: Study 2: 7 ppm Compound 78 + 6% sucrose vs 8% Sucrose.
The mark [5] stands for this setting: agonist activity, hT1R2/T1R3, read-out: Sweet EC50.

As for `OC[C@H]1O[C@@](CO)(O[C@H]2O[C@H](CO)[C@@H](O)[C@H](O)[C@H]2O)[C@@H](O)[C@@H]1O` [Sucrose, sucrose, reference compound], the figures for the “Results (which of the samples was sweeter)” value in test [1] (setting [3]) and in test [1] (setting [4]) were 42 and 24, respectively.

With `Cc1cccc(C)c1N1CCN(C(C)(C)C(=O)NCC(C)C)CC1` [Compound 40], in test [2] (setting [5]), the EC50 is more than 10 µM. Take `Cc1cccc(N2CCN(C(C)(C)C(=O)NCC(C)(C)O)CC2)c1C` [Compound 25]: the concentration for a half-maximal effect (EC50) in test [2] (setting [5]) is more than 10 µM.

With `CC(C)(C(=O)NC1CC1)N1CCC(C#N)(c2cccc(F)c2F)CC1` [Compound 128], a half-maximal effect in test [2] (EC50) was put at 1.7 µM. As for `COCc1cccc(C2=CCN(C(COC)C(=O)NCC(C)C)CC2)c1F` (stereo not shown) [Compound 55, 2-(4-(2-fluoro-3-(methoxymethyl)phenyl)-3,6-dihydropyridin-1(2H)-yl)-N-isobutyl-3-methoxypropanamide], the EC50 in test [2] (setting [5]) amounted to 1.4 µM. On the same count and under the same terms, as for `Cc1ncccc1C1=CCN(C(C)(C)C(=O)NCC(C)C)CC1` [Compound 76], the figure is more than 10 µM. Take `CC(C)(C)NC(=O)C(C)(C)N1CCC(C#N)(c2cccc(F)c2F)CC1` [Compound 126]: in test [2], the response was half-maximal at 2 µM (EC50). As for `CC(C)CNC(=O)C(C)(C)N1CCN(c2cccc(F)c2F)CC1` [Compound 3, 2-(4-(2,3-difluorophenyl)piperazin-1-yl)-N-isobutyl-2-methylpropanamide], the EC50 in test [2] (setting [5]) is 1.6 µM. The same measure, in the same setting: the same measure for `Cc1cccc(N2CCN(C(C)(C)C(=O)NC3CCCCC3)CC2)c1C` [Compound 13]: 9.4 µM. In turn, `COCC1(c2ccccc2)CCN(C(C)(C)C(=O)NCC(C)C)CC1` [Compound 120] registered an EC50 in test [2] of more than 10 µM.

As to `Cc1cccc(C2CCN(C(C)(C)C(=O)NCC(C)C)CC2)c1F` [Compound 98], the half-maximal effective concentration (EC50) in test [2] (setting [5]) amounted to 0.9 µM. Consider `Cc1ccccc1N1CCN(C(C)(C)C(=O)NCC(C)C)CC1` [Compound 46], for which, in test [2] (setting [5]), the 50% effective concentration (EC50) was 4.3 µM. The same measure, in the same setting: the same measure for `Cc1cccc(N2CCN(C(C)(C)C(=O)NCC(C)C)CC2)c1C` [Compound 10]: 2.8 µM; for `CC(C)CNC(=O)C(C)(C)N1CC=C(c2cccc(F)c2F)CC1` [Compound 59]: 1.7 µM; for `COCc1cccc(N2CCN(C(C)(C)C(=O)NCC(C)C)CC2)c1F` [Compound 4, 2-(4-(2-fluoro-3-(methoxymethyl)phenyl)piperazin-1-yl)-N-isobutyl-2-methylpropanamide]: 2.1 µM. On to `COCc1cccc(C2CCN(C(COC)C(=O)NCC(C)C)CC2)c1F` (stereo not shown) [Compound 78, 2-(4-(2-fluoro-3-(methoxymethyl)phenyl)piperidin-1-yl)-N-isobutyl-3-methoxypropanamide], for which, in test [2] (setting [5]), the EC50 stood at 1.3 µM. Moreover, the “Results (which of the samples was sweeter)” value is given as 9 in test [1] (setting [3]), 21 in test [1] (setting [4]) and 22 in test [1] (Study 3: 9 ppm Compound 78 + 6% HFCS vs 8% HFCS). In addition, the “HFCS and sucrose sweet enhancement effect” value is “remarkable HFCS and Sucrose sweet enhancement effect” in test [1]; “significant enhancement” in test [1] (listed as compound 78). Also, the “sweetness compared with 1.5% sucrose” value in test [1] (test #1, 10 ppm, pH 2.8) is “significantly less sweet”. Moreover, the “sweetness compared with 8% sucrose” value in test [1] (test #2, 10 ppm of compound 78+6% sucrose) is “no significant difference in sweetness”. On to `Cc1cccc(N2CCN(C(C)(C)C(=O)NCC(C)(C)C)CC2)c1C` [Compound 18], for which the EC50 in test [2] (setting [5]) is more than 10 µM. For `CCNC(=O)C(C)(C)N1CCN(c2cccc(C)c2C)CC1` [Compound 8], in test [2] (setting [5]), the EC50 is more than 10 µM. As for `COCc1ccccc1C1CCN(C(C)(C)C(=O)NCC(C)C)CC1` [Compound 110], the EC50 in test [2] (setting [5]) was more than 10 µM. Same read-out and setting: as for `CC(C)(C(=O)NC1CCCC1)N1CCC(c2ccccc2)CC1` [Compound 84], the figure is 2.5 µM. In the case of `COCc1ccc(C2CCN(C(C)(C)C(=O)NCC(C)C)CC2)c(F)c1` [Compound 102], the 50% effective concentration (EC50) in test [2] (setting [5]) was more than 10 µM.

As to `Cc1ccc(C)c(N2CCN(C(C)(C)C(=O)NCC(C)C)CC2)c1` [Compound 38], in test [2] (setting [5]), the concentration for a half-maximal effect (EC50) is more than 10 µM.

With `COC(=O)c1c(F)cccc1N1CCN(C(C)(C)C(=O)NCC(C)C)CC1` [Compound 7, Methyl 2-fluoro-6-(4-(1-(isobutylamino)-2-methyl-1-oxopropan-2-yl)piperazin-1-yl)benzoate], the EC50 in test [2] (setting [5]) amounted to 11.5 µM. The same measure, in the same setting: the same measure for `CC(C)CNC(=O)C(C)(C)N1CCN(c2ccccc2)CC1` [Compound 34]: more than 10 µM. Regarding `CC(C)(C)CNC(=O)C(C)(C)N1CCC(c2ccccc2)CC1` [Compound 88], the EC50 in test [2] (setting [5]) was 4.2 µM.

For `Cc1cccc(N2CCN(CC(=O)NC3CC3)CC2)c1C` [Compound 31], the concentration giving a half-maximal response (EC50) in test [2] (setting [5]) was more than 10 µM. On the same count and under the same terms, the same measure for `Cc1cccnc1N1CCN(C(C)(C)C(=O)NCC(C)C)CC1` [Compound 41]: more than 10 µM.

For the compound `CC(C)CNC(=O)C(C)(C)N1CCN(c2cccc(F)c2CO)CC1` [Compound 51, 2-(4-(3-fluoro-2-(hydroxymethyl)phenyl)piperazin-1-yl)-N-isobutyl-2-methylpropanamide], in test [2] (setting [5]), the EC50 is more than 10 µM. Still for that read-out and setting: as for `CCC(CC)CNC(=O)C(C)(C)N1CCN(c2cccc(C)c2C)CC1` [Compound 21], the figure is more than 10 µM. The same measure, in the same setting: as for `CC(C)CNC(=O)C(C)(C)N1CCC2(CC1)OCc1ccccc12` [Compound 121], the figure is 5.6 µM; as for `Cc1cccc(N2CCN(C(C)(C)C(=O)NCC3CCCCC3)CC2)c1C` [Compound 16], more than 10 µM; as for `CC(C)CNC(=O)C(C)(C)N1CCN(c2ccccc2C(F)(F)F)CC1` [Compound 50], more than 10 µM.
